{"source": "patent US9744204B1", "about": "“Multipath nutritional supplement for memory, cognition, and coordination” (priority 2015, dated 2017)", "key": {"[1]": {"test_system": "transgenic Drosophila melanogaster with an inducible tau", "test": "Timed crawl test in transgenic flies with RU-486-inducible human tau", "assay_type": "in vivo", "details": "RU-486-treated tau transgenic flies, crawl tests twice each week as flies aged (FIG. 1A, FIG. 2)", "procedure": "FIGS. 1A and 1B show typical screens of transgenic Drosophila melanogaster with an inducible tau (FIG. 1A) or Abeta (FIG. 1B), which greatly reduces neural function with age. To assay for fly behavior changes as neural dysfunction progresses, timed crawl tests in which the time it takes individual flies to climb to the top of a test vial were performed twice each week as the flies aged. Select compositions were screened for use on the transgenic flies using the genetically targeted substances believed to act on longevity genes. Different dose concentrations were tested. Two hundred flies (1 fly of each sex in each of 100 vials) for each test condition were used. RU-486 was added to all fly samples except the untreated controls named Untreated (dashed blue line) and the A+P+T Control) about 4-5 days after flies were placed in vials. The first crawl tests were started about 9-10 days after insertion into vials and 5-6 days after RU addition (see FIGS. 1A and 1B). In Untreated Controls (dashed blue line), young flies typically crawl to the top of the vial quickly in 7-10 seconds, while older flies have progressively longer crawl times of up to 40 seconds or more with advancing age. The RU Controls (solid blue line) were treated with RU-486 without any helper substance and therefore have poor crawling tests and die early at 7 weeks (tau in FIG. 1A) or 5 weeks (Abeta in FIG. 1B). […]"}, "rats": {"test_system": "rats", "details": "in rats; cited from earlier work"}, "[2]": {"test_system": "transgenic Drosophila melanogaster with an inducible Abeta", "test": "Timed crawl test in transgenic flies with RU-486-inducible human Abeta", "assay_type": "in vivo", "details": "RU-486-treated Abeta transgenic flies (FIG. 1B)", "protocol": "To assay for fly behavior changes as neural dysfunction progresses, timed crawl tests in which the time it takes individual flies to climb to the top of a test vial were performed twice each week as the flies aged. Select compositions were screened for use on the transgenic flies using the genetically targeted substances believed to act on longevity genes. Different dose concentrations were tested. Two hundred flies (1 fly of each sex in each of 100 vials) for each test condition were used. RU-486 was added to all fly samples except the untreated controls named Untreated (dashed blue line) and the A+P+T Control) about 4-5 days after flies were placed in vials. The first crawl tests were started about 9-10 days after insertion into vials and 5-6 days after RU addition (see FIGS. 1A and 1B). […] The single substances and substance combinations are shown by the one letter codes: A=Astragalus, P=Pterocarpus, T=L-Theanine, G=Genistein, B=Berberine, L=Lithium, and S=Selenium.\nTo assay for fly neural functional decline with age as Abeta, tau, or the Park gene is induced, crawl times were used to test substances initially picked from the genomics work."}}}
{"smiles": "CC12CC3CC(C)(C1)CC(N)(C3)C2", "note": "[Mementin, reference compound]", "values": [{"measurement": "crawl time / delay of neuronal dysfunction induced by human tau expression", "setting": "[1]", "value": "works very well"}]}
{"smiles": "CCNC(=O)CC[C@H](N)C(=O)O", "note": "[L-Theanine, gamma-glutamylethylamide]", "values": [{"measurement": "neuroprotection", "setting": "rats", "value": "neuroprotective"}]}
{"smiles": "[Se]", "note": "[Selenium]", "values": [{"measurement": "crawl time / delay of neuronal dysfunction induced by human tau expression", "setting": "[1]", "value": "can protect against dementia"}, {"measurement": "crawl time / protection against dementia induced by human Abeta expression", "setting": "[2]", "value": "can protect against dementia"}]}
